Results from patent publication US11230540B2, “Substituted triazole derivatives and uses thereof” (Bayer Pharma Aktiengesellschaft, priority 2017, dated 2022).
Structures can show the parent of a compound that is named as a salt.

Key:
human V1a receptor = biological target: T1, human V1a receptor (Homo sapiens, UniProt P37288); assay: Cellular in vitro assay for vasopressin receptor activity, V1a receptor cell line (aequorin luminescence); format: cell-based; settings: for IC50: CHO cell line transfected with human V1a receptor, [Arg8]-vasopressin at EC50 concentration, read-out: IC50 hV1a; for ratio IC50 hV2/hV1a: selectivity ratio of the IC50 values hV2/hV1a
T1 construct: expressed in transfected cells; host or cells: CHO K1 (Chinese hamster ovary), also stably transfected with a modified aequorin
Experimental: (§1) B-1. Cellular In Vitro Assay for Determining Vasopressin Receptor Activity
(§2) The identification of agonists and antagonists of the V1a and V2 vasopressin receptors from humans, rats and dogs as well as the quantification of the activity of the compounds of the invention is carried out using recombinant cell lines. These cell lines originally derive from a hamster's ovary epithelial cell (Chinese Hamster Ovary, CHO K1, ATCC: American Type Culture Collection, Manassas, Va. 20108, USA). The test cell lines constitutively express the human, rat or dog V1a or V2 receptors. In case of the […] V1a receptors, cells are also stably transfected with a modified form of the calcium-sensitive photoproteins aequorin (human and rat V1a) or obelin (dog V1a), which, after reconstitution with the cofactor coelenterazine, emit light when there are increases in free calcium concentrations [Rizzuto R, Simpson A W, Brini M, Pozzan T, Nature 358, 325-327 (1992); Illarionov B A, Bondar V S, Illarionova V A, Vysotski E S, Gene 153 (2), 273-274 (1995)]. The resulting vasopressin receptor cells react to stimulation of the recombinantly expressed V1a receptors by intracellular release of calcium ions, which can be quantified by the resulting photoprotein luminescence. The Gs-coupled V2 receptors are stably transfected into cell lines expressing the gene for firefly luciferase under control of a CRE-responsible promoter. Activation of V2 receptors induces the activation of the CRE-responsive promoter via cAMP increase, thereby inducing the expression of firefly luciferase. The light emitted by photoproteins of V1a cell lines as well as the light emitted by firefly luciferase of V2 cell lines corresponds to the activation or inhibition of the respective vasopressin receptor. The bioluminescence of the cell lines is detected using a suitable luminometer [Milligan G, Marshall F, Rees S, Trends in Pharmacological Sciences 17, 235-237 (1996)].
Vasopressin V1a Receptor Cell Lines:
On the day before the assay, the cells are plated out in culture medium (DMEM/F12, 2% FCS, 2 mM glutamine, 10 mM HEPES, 5 μg/ml coelenterazine) in 384-well microtiter plates and kept in a cell incubator (96% humidity, 5% v/v CO2, 37° C.). On the day of the assay, test compounds in various concentrations are placed for 10 minutes in the wells of the microtiter plate before the agonist [Arg^8]-vasopressin at EC50 concentration is added. The resulting light signal is measured immediately in a luminometer.
(§3) Table 1A below lists individual IC50 values for the compounds of the invention (including racemic mixtures as well as separated enantiomers) that were obtained from cell lines transfected with the human V1a or V2 receptor: […]

human V2 receptor = biological target: T2, human V2 receptor (Homo sapiens, UniProt P30518); assay: Cellular in vitro assay for vasopressin receptor activity, V2 receptor cell line (CRE-luciferase); format: cell-based; settings: CHO cell line transfected with human V2 receptor; [Arg8]-vasopressin at EC50 concentration; read-out: IC50 hV2
T2 construct: expressed in transfected cells; host or cells: CHO K1 (Chinese hamster ovary) expressing firefly luciferase under a CRE-responsive promoter
Experimental: as §1, §2
Vasopressin V2 Receptor Cell Lines:
On the day before the assay, the cells are plated out in culture medium (DMEM/F12, 2% FCS, 2 mM glutamine, 10 mM HEPES) in 384-well microtiter plates and kept in a cell incubator (96% humidity, 5% v/v CO2, 37° C.). On the day of the assay, test compounds in various concentrations and the agonist [Arg^8]-vasopressin at EC50 concentration are added together to the wells, and plates are incubated for 3 hours in a cell incubator. Upon addition of the cell lysis reagent Triton™ and the substrate luciferin, luminescence of firefly luciferase is measured in a luminometer.
as §3

T1 sequence (P37288 whole entry): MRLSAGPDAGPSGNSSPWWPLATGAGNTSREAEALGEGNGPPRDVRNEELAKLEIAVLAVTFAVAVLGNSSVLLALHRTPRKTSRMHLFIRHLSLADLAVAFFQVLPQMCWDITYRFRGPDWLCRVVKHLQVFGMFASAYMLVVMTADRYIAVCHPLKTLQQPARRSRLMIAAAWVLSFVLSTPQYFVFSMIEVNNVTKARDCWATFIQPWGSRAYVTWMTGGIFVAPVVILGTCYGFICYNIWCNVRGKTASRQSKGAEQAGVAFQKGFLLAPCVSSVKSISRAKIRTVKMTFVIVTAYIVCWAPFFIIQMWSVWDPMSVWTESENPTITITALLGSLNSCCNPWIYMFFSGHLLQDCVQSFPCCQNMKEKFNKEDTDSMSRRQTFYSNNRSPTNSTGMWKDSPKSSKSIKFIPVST
T2 sequence (P30518 whole entry): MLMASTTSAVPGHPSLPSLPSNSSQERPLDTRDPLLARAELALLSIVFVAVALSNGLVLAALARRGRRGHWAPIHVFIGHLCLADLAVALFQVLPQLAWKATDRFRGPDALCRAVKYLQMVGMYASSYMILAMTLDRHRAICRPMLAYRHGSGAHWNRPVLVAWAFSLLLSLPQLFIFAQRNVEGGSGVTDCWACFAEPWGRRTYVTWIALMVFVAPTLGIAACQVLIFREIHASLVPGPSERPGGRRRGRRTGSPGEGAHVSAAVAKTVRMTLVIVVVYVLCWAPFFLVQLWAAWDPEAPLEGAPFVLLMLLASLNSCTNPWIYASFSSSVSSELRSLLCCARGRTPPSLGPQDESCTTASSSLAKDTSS

Structure (SMILES)	IC50 (human V1a receptor) [nM]	ratio IC50 hV2/hV1a (human V1a receptor)	IC50 (human V2 receptor) [nM]
O=C(NCC1(O)CC1)c1nc(Cn2nc(-c3ccc(Cl)cc3)n(C[C@H](O)C(F)(F)F)c2=O)nn1-c1ncccc1C(F)(F)F [Example 55, 3-({3-(4-Chlorophenyl)-5-oxo-4-[(2S)-3,3,3-trifluoro-2-hydroxypropyl]-4,5-dihydro-1H-1,2,4-triazol-1-yl}methyl)-N-[(1-hydroxycyclopropyl)methyl]-1-[3-(trifluoromethyl)pyridin-2-yl]-1H1,2,4-triazole-5-carboxamide]	1.54	47.2	72.5
CC(C)(O)CNC(=O)c1nc(Cn2nc(-c3ccc(Cl)cc3)n(C[C@H](O)C(F)(F)F)c2=O)nn1-c1ncccc1C(F)(F)F [Example 52, 3-({3-(4-Chlorophenyl)-5-oxo-4-[(2S)-3,3,3-trifluoro-2-hydroxypropyl]-4,5-dihydro-1H-1,2,4-triazol-1-yl}methyl)-N-(2-hydroxy-2-methylpropyl)-1-[3-(trifluoromethyl)pyridin-2-yl]-1H-1,2,4-triazole-5-carboxamide]	0.47	82.8	38.5
O=C(NCC(F)(F)F)c1nc(Cn2nc(-c3ccc(Cl)cc3)n(C[C@H](O)C(F)(F)F)c2=O)nn1-c1cnccc1Cl [Example 19, 3-({3-(4-Chlorophenyl)-5-oxo-4-[(2S)-3,3,3-trifluoro-2-hydroxypropyl]-4,5-dihydro-1H-1,2,4-triazol-1-yl}methyl)-1-(4-chloropyridin-3-yl)-N-(2,2,2-trifluoroethyl)-1H-1,2,4-triazole-5-carboxamide]	0.47	45.7	21.5
CON(C)C(=O)c1nc(Cn2nc(-c3ccc(Cl)cc3)n(C[C@H](O)C(F)(F)F)c2=O)nn1-c1cccc(Cl)c1 [Example 45, 1-(3-Chlorophenyl)-3-({3-(4-chlorophenyl)-5-oxo-4-[(2S)-3,3,3-trifluoro-2-hydroxypropyl]-4,5-dihydro-1H-1,2,4-triazol-1-yl}methyl)-N-methoxy-N-methyl-1H-1,2,4-triazole-5-carboxamide]	0.64	5.7	3.66
CC(C)(C)NC(=O)c1nc(Cn2nc(-c3ccc(Cl)cc3)n(C[C@H](O)C(F)(F)F)c2=O)nn1-c1ncccc1C(F)(F)F [Example 48, N-Tert-butyl-3-({3-(4-chlorophenyl)-5-oxo-4-[(2S)-3,3,3-trifluoro-2-hydroxypropyl]-4,5-dihydro-1H-1,2,4-triazol-1-yl}methyl)-1-[3-(trifluoromethyl)pyridin-2-yl]-1H-1,2,4-triazole-5-carboxamide]	1.31	31.3	41
O=C1CN(C(=O)c2nc(Cn3nc(-c4ccc(Cl)cc4)n(C[C@H](O)C(F)(F)F)c3=O)nn2-c2ccccc2Cl)CCN1 [Example 31, 4-{[1-(2-Chlorophenyl)-3-({3-(4-chlorophenyl)-5-oxo-4-[(2S)-3,3,3-trifluoro-2-hydroxypropyl]-4,5-dihydro-1H-1,2,4-triazol-1-yl}methyl)-1H-1,2,4-triazol-5-yl]carbonyl}piperazin-2-one]	5.7	6.0	34
CC1(CNC(=O)c2nc(Cn3nc(-c4ccc(Cl)cc4)n(C[C@H](O)C(F)(F)F)c3=O)nn2-c2ncccc2OC(F)(F)F)COC1 [Example 7, 3-({3-(4-Chlorophenyl)-5-oxo-4-[(2S)-3,3,3-trifluoro-2-hydroxypropyl]-4,5-dihydro-1H-1,2,4-triazol-1-yl}methyl)-N-[(3-methyloxetan-3-yl)methyl]-1-[3-(trifluoromethoxy)pyridin-2-yl]-1H1,2,4-triazole-5-carboxamide]	2.55	131.4	335
CC1(O)CCN(C(=O)c2nc(Cn3nc(-c4ccc(Cl)cc4)n(C[C@H](O)C(F)(F)F)c3=O)nn2-c2cnccc2Cl)C1 (stereo partly drawn) [Example 6]	2.45	146.9	360
CC1(C)CN(C(=O)c2nc(Cn3nc(-c4ccc(Cl)cc4)n(C[C@H](O)C(F)(F)F)c3=O)nn2-c2ncccc2C(F)(F)F)CCN1 [Example 49, 5-(4-Chlorophenyl)-2-({5-(3,3-dimethylpiperazine-1-carbonyl)-1-[3-(trifluoromethyl)pyridin-2-yl]-1H-1,2,4-triazol-3-yl}methyl)-4-[(2S)-3,3,3-trifluoro-2-hydroxypropyl]-2,4-dihydro-3H-1,2,4-triazol-3-one hydrochloride]	2.5	191.0	478
O=C(NCC(F)(F)F)c1nc(Cn2nc(-c3ccc(Cl)cc3)n(C[C@H](O)C(F)(F)F)c2=O)nn1-c1ncccc1Cl [Example 17, 3-({3-(4-Chlorophenyl)-5-oxo-4-[(2S)-3,3,3-trifluoro-2-hydroxypropyl]-4,5-dihydro-1H-1,2,4-triazol-1-yl}methyl)-1-(3-chloropyridin-2-yl)-N-(2,2,2-trifluoroethyl)-1H-1,2,4-triazole-5-carboxamide]	0.71	40.2	28.3
CNC(=O)c1nc(Cn2nc(-c3ccc(Cl)cc3)n(C[C@H](O)C(F)(F)F)c2=O)nn1-c1ccccc1Cl [Example 43, 1-(2-Chlorophenyl)-3-({3-(4-chlorophenyl)-5-oxo-4-[(2S)-3,3,3-trifluoro-2-hydroxypropyl]-4,5-dihydro-1H-1,2,4-triazol-1-yl}methyl)-N-methyl-1H-1,2,4-triazole-5-carboxamide]	2.07	8.1	16.7
CC1(CNC(=O)c2nc(Cn3nc(-c4ccc(Cl)cc4)n(C[C@H](O)C(F)(F)F)c3=O)nn2-c2cnccc2Cl)COC1 [Example 8, 3-({3-(4-Chlorophenyl)-5-oxo-4-[(2S)-3,3,3-trifluoro-2-hydroxypropyl]-4,5-dihydro-1H-1,2,4-triazol-1-yl}methyl)-1-(4-chloropyridin-3-yl)-N-[(3-methyloxetan-3-yl)methyl]-1H-1,2,4-triazole-5-carboxamide]	0.68	144.9	98.5
NNC(=O)c1nc(Cn2nc(-c3ccc(Cl)cc3)n(C[C@H](O)C(F)(F)F)c2=O)nn1-c1ncccc1Cl [Example 10, 3-({3-(4-Chlorophenyl)-5-oxo-4-[(2S)-3,3,3-trifluoro-2-hydroxypropyl]-4,5-dihydro-1H-1,2,4-triazol-1-yl}methyl)-1-(3-chloropyridin-2-yl)-1H-1,2,4-triazole-5-carbohydrazide]	2.15	44.0	94.5
CON(C)C(=O)c1nc(Cn2nc(-c3ccc(Cl)cc3)n(C[C@H](O)C(F)(F)F)c2=O)nn1-c1ccccc1Cl [Example 44, 1-(2-Chlorophenyl)-3-({3-(4-chlorophenyl)-5-oxo-4-[(2S)-3,3,3-trifluoro-2-hydroxypropyl]-4,5-dihydro-1H-1,2,4-triazol-1-yl}methyl)-N-methoxy-N-methyl-1H-1,2,4-triazole-5-carboxamide]	1.21	7.2	8.63
O=C(NC1CC1)c1nc(Cn2nc(-c3ccc(Cl)cc3)n(C[C@H](O)C(F)(F)F)c2=O)nn1-c1ccccc1Cl [Example 33, 1-(2-Chlorophenyl)-3-({3-(4-chlorophenyl)-5-oxo-4-[(2S)-3,3,3-trifluoro-2-hydroxypropyl]-4,5-dihydro-1H-1,2,4-triazol-1-yl}methyl)-N-cyclopropyl-1H-1,2,4-triazole-5-carboxamide]	1.32	7.4	9.77
